Reference: patent US20240391862A1, “(1,4,5-TRISUBSTITUTED-1H-PYRAZOL-3-YL)OXY-2-ALKOXY ALKYL ACIDS AND THEIR DERIVATIVES, THEIR SALTS AND THEIR USE AS HERBICIDAL AGENTS” (Bayer AKtiengesellschaft, priority 2021, published 2024)

Assays:
[1] = test system: PHBPU; assay: Post-emergence herbicidal effect, greenhouse pot test; type: in vivo, Ipomoea purpurea
Procedure, shortened: (§1)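 Visual % activity scored roughly 3 weeks post-spray against untreated plants, where 100% means death and 0% equals control. Plants were treated at the one-leaf stage, 2 to 3 weeks after sowing in sandy loam, at 20 to 320 g/ha.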

[2] = test system: AVEFA; assay: as above; type: in vivo, Avena fatua; settings: visual rating about 3 weeks after treatment
Procedure, shortened: as §1

[3] = test system: VERPE; assay: as above; type: in vivo, Veronica persica
Procedure, shortened: as §1

[4] = test system: ABUTH; assay: as above; type: in vivo, Abutilon theophrasti; settings: visual rating about 3 weeks after treatment
Procedure, shortened: as §1

[5] = test system: ECHCG; assay: as above; type: in vivo, Echinochloa crus-galli; settings: for Post-emergence effect against ECHCG: 20 g/ha, visual rating about 3 weeks after treatment
Procedure, shortened: as §1

[6] = test system: SETVI; assay: as above; type: in vivo, Setaria viridis; settings: 320 g/ha
Procedure, shortened: as §1

[7] = test system: TRZAS; assay: Post-emergence herbicidal effect and crop plant compatibility, greenhouse pot test; type: in vivo, Triticum aestivum; settings: for Post-emergence effect at 20 g/ha against TRZAS in % / percent crop injury (phytotoxicity) to wheat, post-emergence at 20 g/ha: one-leaf stage, rated visually after about 3 weeks vs untreated controls; for Post-emergence effect against TRZAS: visual rating about 3 weeks after treatment, crop plant; for percent crop injury (phytotoxicity) to wheat, post-emergence at 20 g/ha: Triticum aestivum, 504 h, read-out: Post-emergence effect at 20 g/ha against TRZAS in %
Text: • ALOMY: Alopecurus myosuroides SETVI: Setaria viridis • AVEFA: Avena fatua POLCO: Fallopia convolvulus • AMARE: Amaranthus retroflexus ECHCG: Echinochloa crus-galli • LOLRJ: Lolium rigidum STEME: Stellaria media • VERPE: Veronica persica MATIN: Tripleurospermum inodorum • DIGSA: Digitaria sanguinalis ABUTH: Abutylon threophrasti • TRZAS: Triticum aestivum VIOTR: Viola tricolor • BRSNW: Brassica napus ZEAMX: Zea mays • PHBPU: Ipomoea purpurea GLXMA: Glycine max • ORYSA: Oryza sativa HORMU: Hordeum murinum
Seeds of monocotyledonous and dicotyledonous weeds and crop plants are placed in sandy loam in plastic or organic planting pots, covered with soil and cultivated in a greenhouse under controlled growth conditions. 2 to 3 weeks after sowing, the trial plants are treated at the one-leaf stage. The compounds of the invention, formulated in the form of wettable powders (WP) or as emulsion concentrates (EC), are then sprayed onto the green parts of the plants as aqueous suspension or emulsion with addition of 0.5% additive at a water application rate of 600 l/ha (converted). After the test plants have been kept in the greenhouse under optimum growth conditions for about 3 weeks, the activity of the preparations is rated visually in comparison to untreated controls. For example, 100% activity=the plants have died, 0% activity=like control plants.
Tables 20a to 38c below show the effects/crop compatibilities of selected compounds of the general formula (I) on various harmful plants at an application rate corresponding to 20 to 320 g/ha, which were obtained by the trial procedure specified above.

[8] = test system: DIGSA; assay: Post-emergence herbicidal effect, greenhouse pot test; type: in vivo, Digitaria sanguinalis; settings: visual rating about 3 weeks after treatment
Procedure, shortened: as §1

[9] = test system: VIOTR; assay: as above; type: in vivo, Viola tricolor
Procedure, shortened: as §1

[10] = test system: MATIN; assay: as above; type: in vivo, Tripleurospermum inodorum
Procedure, shortened: as §1

[11] = test system: AMARE; assay: as above; type: in vivo, Amaranthus retroflexus; settings: visual rating about 3 weeks after treatment
Procedure, shortened: as §1

[12] = test system: ZEAMX; assay: Post-emergence herbicidal effect and crop plant compatibility, greenhouse pot test; type: in vivo, Zea mays; settings: Zea mays, 504 h, one-leaf stage, rated visually after about 3 weeks vs untreated controls; for plant injury at 20 g/ha: read-out: Post-emergence effect at 20 g/ha against ZEAMX in %; for plant injury at 80 g/ha: read-out: Post-emergence effect at 80 g/ha against ZEAMX in %; for plant injury at 320 g/ha: read-out: Post-emergence effect at 320 g/ha against ZEAMX in %
Procedure, shortened: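 Greenhouse pot plants in sandy loam receive a one-leaf-stage spray at 20 to 320 g/ha. Activity is assessed visually around 3 weeks afterwards on a 0–100% scale, where 100% means the plants have died.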

[13] = test system: KCHSC; assay: Post-emergence herbicidal effect, greenhouse pot test; type: in vivo; settings: 504 h, read-out: Post-emergence effect against KCHSC in %
Procedure, shortened: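 Visual rating of activity against untreated plants (100% = plants died, 0% = no effect), done about 3 weeks after treatment. Compounds applied at 20–320 g/ha as aqueous spray (600 l/ha, 0.5% additive) from WP or EC formulations onto one-leaf-stage plants grown in sandy loam under greenhouse conditions.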

[14] = test system: LOLRI; assay: as above; type: in vivo, Lolium rigidum; settings: Lolium rigidum, 504 h, 320 g/ha, read-out: Post-emergence effect against LOLRI in %
Procedure, shortened: as §1

[15] = test system: POLCO; assay: as above; type: in vivo, Fallopia convolvulus; settings: Fallopia convolvulus, 504 h, read-out: Post-emergence effect against POLCO in %
Procedure, shortened: as §1

[16] = test system: ALOMY; assay: as above; type: in vivo, Alopecurus myosuroides; settings: Alopecurus myosuroides, 504 h, 320 g/ha, visual rating about 3 weeks after treatment, read-out: Post-emergence effect against ALOMY
Procedure, shortened: as §1

COC(=O)C(OC)Oc1nn(-c2cccc(C)c2F)c(-c2ccnc(F)c2)c1Br (stereo not drawn) [Example I-115]
10%: Post-emergence effect against TRZAS ([7]; 80 g/ha)
0%: Post-emergence effect at 20 g/ha against TRZAS in % [7]
20%: Post-emergence effect against TRZAS ([7]; 320 g/ha)
80%: Post-emergence effect against PHBPU in % ([1]; 320 g/ha) | Post-emergence effect against AVEFA ([2]; 320 g/ha) | Post-emergence effect against VERPE in % ([3]; 320 g/ha) | Post-emergence effect against ABUTH ([4]; 320 g/ha)
90%: Post-emergence effect against ECHCG in % ([5]; 320 g/ha) | Post-emergence effect against SETVI in % [6]

CCOC(=O)C(OC)Oc1nn(-c2cccc(C)c2F)c(-c2ccc(F)nc2)c1Br (stereo not drawn) [Example I-94]
90%: Post-emergence effect against PHBPU in % ([1]; 80 g/ha) | Post-emergence effect against PHBPU in % ([1]; 320 g/ha) | Post-emergence effect against VERPE in % ([3]; 320 g/ha) | Post-emergence effect against VIOTR in % ([9]; 320 g/ha) | Post-emergence effect against MATIN in % ([10]; 320 g/ha) | Post-emergence effect against ABUTH ([4]; 320 g/ha) | Post-emergence effect against SETVI in % [6] | Post-emergence effect against AMARE ([11]; 320 g/ha)
0%: Post-emergence effect at 20 g/ha against TRZAS in % [7]
20%: Post-emergence effect against TRZAS ([7]; 320 g/ha)
100%: Post-emergence effect against ECHCG in % ([5]; 80 g/ha) | Post-emergence effect against ECHCG in % ([5]; 320 g/ha)
80%: Post-emergence effect against PHBPU in % ([1]; 20 g/ha) | Post-emergence effect against DIGSA ([8]; 320 g/ha) | Post-emergence effect against AVEFA ([2]; 320 g/ha) | Post-emergence effect against VERPE in % ([3]; 80 g/ha) | Post-emergence effect against VIOTR in % ([9]; 80 g/ha) | Post-emergence effect against MATIN in % ([10]; 80 g/ha) | Post-emergence effect against ABUTH ([4]; 80 g/ha) | Post-emergence effect against ECHCG [5] | Post-emergence effect against AMARE ([11]; 80 g/ha)
10%: Post-emergence effect against TRZAS ([7]; 80 g/ha)

COC(Oc1nn(-c2ncccc2F)c(-c2ccc(F)nc2)c1Cl)C(=O)O (stereo not drawn) [Example I-44]
0%: plant injury at 20 g/ha [12] | plant injury at 80 g/ha [12] | plant injury at 320 g/ha [12] | percent crop injury (phytotoxicity) to wheat, post-emergence at 20 g/ha [7]

CCOC(Oc1nn(-c2ccccc2F)c(-c2ccc(F)nc2)c1Cl)C(=O)O (stereo not drawn) [Example I-52]
0%: plant injury at 20 g/ha [12] | plant injury at 80 g/ha [12] | plant injury at 320 g/ha [12] | percent crop injury (phytotoxicity) to wheat, post-emergence at 20 g/ha [7]

COC(=O)CCOC(=O)C(OC)Oc1nn(-c2cccc(C)c2F)c(-c2ccc(F)nc2)c1Br (stereo not drawn) [Example I-95]
80%: Post-emergence effect against VERPE in % ([3]; 80 g/ha) | Post-emergence effect against VIOTR in % ([9]; 80 g/ha) | Post-emergence effect against MATIN in % ([10]; 80 g/ha) | Post-emergence effect against MATIN in % ([10]; 320 g/ha) | Post-emergence effect against ABUTH ([4]; 80 g/ha) | Post-emergence effect against ECHCG [5] | Post-emergence effect against AMARE ([11]; 80 g/ha)
90%: Post-emergence effect against PHBPU in % ([1]; 80 g/ha) | Post-emergence effect against PHBPU in % ([1]; 320 g/ha) | Post-emergence effect against VERPE in % ([3]; 320 g/ha) | Post-emergence effect against VIOTR in % ([9]; 320 g/ha) | Post-emergence effect against ABUTH ([4]; 320 g/ha) | Post-emergence effect against ECHCG in % ([5]; 80 g/ha) | Post-emergence effect against SETVI in % [6] | Post-emergence effect against AMARE ([11]; 320 g/ha)
100%: Post-emergence effect against ECHCG in % ([5]; 320 g/ha)
0%: Post-emergence effect at 20 g/ha against TRZAS in % [7] | Post-emergence effect against TRZAS ([7]; 80 g/ha) | Post-emergence effect against TRZAS ([7]; 320 g/ha)

COC(Oc1nn(-c2cnccn2)c(-c2ccc(F)nc2)c1Br)C(=O)O (stereo not drawn) [Example I-43]
0%: plant injury at 20 g/ha [12] | plant injury at 80 g/ha [12] | percent crop injury (phytotoxicity) to wheat, post-emergence at 20 g/ha [7]

COC(=O)C(OC)Oc1nn(-c2ncccc2F)c(-c2ccc(F)nc2)c1C(F)(F)F (stereo not drawn) [Example I-41, Methyl {[1-(3-fluoropyridin-2-yl)-5-(6-fluoropyridin-3-yl)-4-(trifluoromethyl)-1H-pyrazol-3-yl]oxy}(methoxy)acetate]
0%: plant injury at 20 g/ha [12] | plant injury at 80 g/ha [12]
80%: pest or weed control at 80 g/ha ([13]; 80 g/ha) | pest or weed control at 80 g/ha ([8]; Digitaria sanguinalis, 504 h, 80 g/ha, read-out: Post-emergence effect against DIGSA) | pest or weed control at 80 g/ha ([2]; Avena fatua, 504 h, 80 g/ha, read-out: Post-emergence effect against AVEFA) | pest or weed control at 80 g/ha ([9]; Viola tricolor, 504 h, 80 g/ha, read-out: Post-emergence effect against VIOTR in %) | pest or weed control at 320 g/ha ([10]; Tripleurospermum inodorum, 504 h, 320 g/ha, read-out: Post-emergence effect against MATIN in %)
90%: pest or weed control at 320 g/ha ([13]; 320 g/ha) | pest or weed control at 320 g/ha [14] | pest or weed control at 80 g/ha ([1]; Ipomoea purpurea, 504 h, 80 g/ha, read-out: Post-emergence effect against PHBPU in %) | pest or weed control at 320 g/ha ([1]; Ipomoea purpurea, 504 h, 320 g/ha, read-out: Post-emergence effect against PHBPU in %) | pest or weed control at 320 g/ha ([8]; Digitaria sanguinalis, 504 h, 320 g/ha, read-out: Post-emergence effect against DIGSA) | pest or weed control at 320 g/ha ([2]; Avena fatua, 504 h, 320 g/ha, read-out: Post-emergence effect against AVEFA) | pest or weed control at 320 g/ha ([3]; Veronica persica, 504 h, 320 g/ha, read-out: Post-emergence effect against VERPE in %) | pest or weed control at 320 g/ha ([9]; Viola tricolor, 504 h, 320 g/ha, read-out: Post-emergence effect against VIOTR in %) | pest or weed control at 80 g/ha ([15]; 80 g/ha) | pest or weed control at 320 g/ha ([15]; 320 g/ha) | pest or weed control at 80 g/ha ([4]; Abutilon theophrasti, 504 h, 80 g/ha, read-out: Post-emergence effect against ABUTH) | pest or weed control at 320 g/ha ([4]; Abutilon theophrasti, 504 h, 320 g/ha, read-out: Post-emergence effect against ABUTH) | pest or weed control at 320 g/ha ([5]; Echinochloa crus-galli, 504 h, 320 g/ha, read-out: Post-emergence effect against ECHCG in %) | pest or weed control at 320 g/ha ([6]; Setaria viridis, 504 h, read-out: Post-emergence effect against SETVI in %) | pest or weed control at 320 g/ha ([11]; Amaranthus retroflexus, 504 h, 320 g/ha, read-out: Post-emergence effect against AMARE) | pest or weed control at 320 g/ha [16]
